What all share (experiment): Glasshouse assay for herbicidal activity (pre- and post-emergence), percentage phytotoxicity
Common to all, as to type: in vivo

The subject of assay [1] is Alopecurus myosuroides (ALOMY). The following applies: Alopecurus myosuroides. The protocol: (§1) Test—Glasshouse Assay for Herbicidal Activity
(§2) Seeds of a variety of monocotyledonous and dicotyledonous test plants are sown in standard soil in pots. The plants are cultivated for one day (for pre-emergence (PRE)) or for about 12 days (for post-emergence (POST)) under controlled conditions in a glasshouse (warm climate species at 24/18° C., cool climate species at 20/16° C., both at day/night; 16 hours light; 65% humidity).
(§3) The test plants are then grown on, in a glasshouse (greenhouse) under controlled conditions (warm climate species at 24/18° C., cool climate species at 20/16° C., both at day/night; 16 hours light; 65% humidity) and are watered twice daily. 15 days after application of the test herbicide (15 DAA) (for post-emergence), and 20 days after application of the test herbicide (20 DAA) (for pre-emergence), the test plants are evaluated visually, and an assessed percentage phytotoxicity score is given for each herbicidal application on each plant species (with 100%=total damage to plant; 0%=no damage to plant).
(§4) The plant species tested are as follows: Alopecurus myosuroides (ALOMY), Avena fatua (AVEFA), Lolium perenne (LOLPE), Echinochloa crus-galli (ECHCG).

Assay [2] deals with Avena fatua (AVEFA). The following applies: Avena fatua. The protocol:
as §1, §2, §3, §4

Assay [3] relates to Echinochloa crus-galli (ECHCG). The settings on record: Echinochloa crus-galli. The protocol: as §1, §2, §3, §4
For assay [4], the system named is Lolium perenne (LOLPE). The following applies: Lolium perenne. The protocol: as §1, §2, §3, §4
The mark [5] stands for this setting: post-emergence, 360 h, Rate 250 g/ha, post-emergence, visual assessment 15 DAA, 100%=total damage, 0%=no damage, read-out: Post-emergence herbicidal activity (percentage phytotoxicity) ALOMY POST.
The mark [6] stands for this setting: pre-emergence, 480 h, Rate 250 g/ha, pre-emergence, visual assessment 20 DAA, 100%=total damage, 0%=no damage, read-out: Pre-emergence herbicidal activity (percentage phytotoxicity) ALOMY PRE.
Where [7] appears, read: post-emergence, 360 h, Rate 250 g/ha, post-emergence, visual assessment 15 DAA, 100%=total damage, 0%=no damage, read-out: Post-emergence herbicidal activity (percentage phytotoxicity) AVEFA POST.
[8] abbreviates: pre-emergence, 480 h, Rate 250 g/ha, pre-emergence, visual assessment 20 DAA, 100%=total damage, 0%=no damage, read-out: Pre-emergence herbicidal activity (percentage phytotoxicity) AVEFA PRE.
The mark [9] stands for this setting: post-emergence, 360 h, Rate 250 g/ha, post-emergence, visual assessment 15 DAA, 100%=total damage, 0%=no damage, read-out: Post-emergence herbicidal activity (percentage phytotoxicity) ECHCG POST.
The mark [10] stands for this setting: pre-emergence, 480 h, Rate 250 g/ha, pre-emergence, visual assessment 20 DAA, 100%=total damage, 0%=no damage, read-out: Pre-emergence herbicidal activity (percentage phytotoxicity) ECHCG PRE.
Setting [11] is: post-emergence, 360 h, Rate 250 g/ha, post-emergence, visual assessment 15 DAA, 100%=total damage, 0%=no damage, read-out: Post-emergence herbicidal activity (percentage phytotoxicity) LOLPE POST.
Setting [12] is: pre-emergence, 480 h, Rate 250 g/ha, pre-emergence, visual assessment 20 DAA, 100%=total damage, 0%=no damage, read-out: Pre-emergence herbicidal activity (percentage phytotoxicity) LOLPE PRE.
The mark [13] stands for this setting: post-emergence, 360 h, Rate 250 g/ha, post-emergence, assessed visually 15 DAA, 100%=total damage, 0%=no damage, read-out: Post-emergence herbicidal activity (percentage phytotoxicity) ALOMY POST.
[14] abbreviates: pre-emergence, 480 h, Rate 250 g/ha, pre-emergence, assessed visually 20 DAA, 100%=total damage, 0%=no damage, read-out: Pre-emergence herbicidal activity (percentage phytotoxicity) ALOMY PRE.
[15] abbreviates: post-emergence, 360 h, Rate 250 g/ha, post-emergence, assessed visually 15 DAA, 100%=total damage, 0%=no damage, read-out: Post-emergence herbicidal activity (percentage phytotoxicity) AVEFA POST.
Setting [16] is: pre-emergence, 480 h, Rate 250 g/ha, pre-emergence, assessed visually 20 DAA, 100%=total damage, 0%=no damage, read-out: Pre-emergence herbicidal activity (percentage phytotoxicity) AVEFA PRE.
Setting [17] is: post-emergence, 360 h, Rate 250 g/ha, post-emergence, assessed visually 15 DAA, 100%=total damage, 0%=no damage, read-out: Post-emergence herbicidal activity (percentage phytotoxicity) ECHCG POST.
Setting [18] is: pre-emergence, 480 h, Rate 250 g/ha, pre-emergence, assessed visually 20 DAA, 100%=total damage, 0%=no damage, read-out: Pre-emergence herbicidal activity (percentage phytotoxicity) ECHCG PRE.
Where [19] appears, read: post-emergence, 360 h, Rate 250 g/ha, post-emergence, assessed visually 15 DAA, 100%=total damage, 0%=no damage, read-out: Post-emergence herbicidal activity (percentage phytotoxicity) LOLPE POST.
Where [20] appears, read: pre-emergence, 480 h, Rate 250 g/ha, pre-emergence, assessed visually 20 DAA, 100%=total damage, 0%=no damage, read-out: Pre-emergence herbicidal activity (percentage phytotoxicity) LOLPE PRE.
Where [21] appears, read: post-emergence, 360 h, 250 g/ha, post-emergence, 15 DAA, visual assessment (100%=total damage, 0%=no damage), read-out: Post-emergence herbicidal activity (percentage phytotoxicity) ALOMY POST.
The mark [22] stands for this setting: pre-emergence, 480 h, 250 g/ha, pre-emergence, 20 DAA, visual assessment (100%=total damage, 0%=no damage), read-out: Pre-emergence herbicidal activity (percentage phytotoxicity) ALOMY PRE.
[23] abbreviates: post-emergence, 360 h, 250 g/ha, post-emergence, 15 DAA, visual assessment (100%=total damage, 0%=no damage), read-out: Post-emergence herbicidal activity (percentage phytotoxicity) AVEFA POST.
Where [24] appears, read: pre-emergence, 480 h, 250 g/ha, pre-emergence, 20 DAA, visual assessment (100%=total damage, 0%=no damage), read-out: Pre-emergence herbicidal activity (percentage phytotoxicity) AVEFA PRE.
Setting [25] is: post-emergence, 360 h, 250 g/ha, post-emergence, 15 DAA, visual assessment (100%=total damage, 0%=no damage), read-out: Post-emergence herbicidal activity (percentage phytotoxicity) ECHCG POST.
The mark [26] stands for this setting: pre-emergence, 480 h, 250 g/ha, pre-emergence, 20 DAA, visual assessment (100%=total damage, 0%=no damage), read-out: Pre-emergence herbicidal activity (percentage phytotoxicity) ECHCG PRE.
Setting [27] is: post-emergence, 360 h, 250 g/ha, post-emergence, 15 DAA, visual assessment (100%=total damage, 0%=no damage), read-out: Post-emergence herbicidal activity (percentage phytotoxicity) LOLPE POST.
[28] abbreviates: pre-emergence, 480 h, 250 g/ha, pre-emergence, 20 DAA, visual assessment (100%=total damage, 0%=no damage), read-out: Pre-emergence herbicidal activity (percentage phytotoxicity) LOLPE PRE.

Where two headings read alike, the source gives them in different places.

`Cc1cc(-c2ccc(F)cn2)cc(C)c1C1C(=O)CC(CC(=O)NCc2cccc(F)c2)C1=O` (stereo not shown) [Compound B383]: the pest or weed control at 250 g/ha in assay [1] (setting [5]) is 100%; in assay [1] (setting [6]) it was 90%; in assay [2] (setting [7]), 100%; in assay [2] (setting [8]) it was 90%; in assay [3] (setting [9]), 90%; in assay [3] (setting [10]), 100%. Also, the pest or weed control at 250 g/ha in assay [4] (setting [11]) stood at 90%; in assay [4] (setting [12]) it was 100%.
For `Cc1cc(-c2ccc(Cl)cn2)cc(C)c1C1C(=O)CC(CC(=O)NCc2cccs2)C1=O` (stereo not shown) [Compound B373], the pest or weed control at 250 g/ha in assay [1] (setting [5]) amounted to 80%; in assay [1] (setting [6]) it was 70%; in assay [2] (setting [7]) it was 100%; in assay [2] (setting [8]), 80%; in assay [3] (setting [9]), 100%; in assay [3] (setting [10]) it was 100%. In addition, the pest or weed control at 250 g/ha in assay [4] (setting [11]) amounted to 80%; in assay [4] (setting [12]), 100%.
Take `C#Cc1cc(C)c(C2C(=O)CC(CC(=O)NC(C)C)C2=O)c(C)c1` (stereo not shown) [Compound A42]: the pest or weed control at 250 g/ha in assay [1] (setting [13]) stood at 100%; in assay [1] (setting [14]) it was 100%; in assay [2] (setting [15]) it was 100%; in assay [2] (setting [16]), 100%; in assay [3] (setting [17]), 80%; in assay [3] (setting [18]), 100%. Also, the pest or weed control at 250 g/ha in assay [4] (setting [19]) stood at 90%; in assay [4] (setting [20]), 100%.
Take `Cc1cc(C)c(C2C(=O)CC(CC(=O)NC(C)CC3CCCC3)C2=O)c(C)c1` (stereo not shown) [Compound B28]: the pest or weed control at 250 g/ha in assay [1] (setting [21]) amounted to 50%; in assay [1] (setting [22]) it was 50%; in assay [2] (setting [23]) it was 60%; in assay [2] (setting [24]) it was 50%; in assay [3] (setting [25]), 70%; in assay [3] (setting [26]), 60%. Besides, the pest or weed control at 250 g/ha worked out at 50% in assay [4] (setting [27]) and 80% in assay [4] (setting [28]).
In the case of `C#CCNC(=O)CC1CC(=O)C(c2c(C)cccc2CC)C1=O` (stereo not shown) [Compound B151], the pest or weed control at 250 g/ha in assay [1] (setting [21]) was 100%; in assay [1] (setting [22]), 100%; in assay [2] (setting [23]) it was 100%; in assay [2] (setting [24]), 90%; in assay [3] (setting [25]), 100%; in assay [3] (setting [26]) it was 100%. The pest or weed control at 250 g/ha in assay [4] (setting [27]) and in assay [4] (setting [28]) was 90% in each case.
`C#Cc1cc(C)c(C2C(=O)CC(CC(=O)NC(C)CC)C2=O)c(C)c1` (stereo not shown) [Compound A9, 2-[3-(4-ethynyl-2,6-dimethyl-phenyl)-2,4-dioxo-cyclopentyl]-N-sec-butyl-acetamide]: the pest or weed control at 250 g/ha was 80% in assay [1] (setting [13]); 90% in assay [1] (setting [14]); 100% in assay [2] (setting [15]); 90% in assay [2] (setting [16]); 90% in assay [3] (setting [17]); 100% in assay [3] (setting [18]). In addition, the figures for the pest or weed control at 250 g/ha in assay [4] (setting [19]) and in assay [4] (setting [20]) were 80% and 90%, respectively.
For `CCCN(CC)C(=O)CC1CC(=O)C(c2c(C)cc(C)cc2C)C1=O` (stereo not shown) [Compound A171], the pest or weed control at 250 g/ha was found to be 70% in assay [1] (post-emergence, 360 h, post-emergence, 250 g/ha, 15 DAA, visual score (100%=total damage; 0%=no damage), read-out: ALOMY POST herbicidal activity (percentage phytotoxicity)); 60% in assay [1] (pre-emergence, 480 h, pre-emergence, 250 g/ha, 20 DAA, visual score (100%=total damage; 0%=no damage), read-out: ALOMY PRE herbicidal activity (percentage phytotoxicity)); 70% in assay [2] (post-emergence, 360 h, post-emergence, 250 g/ha, 15 DAA, visual score (100%=total damage; 0%=no damage), read-out: AVEFA POST herbicidal activity (percentage phytotoxicity)); 20% in assay [2] (pre-emergence, 480 h, pre-emergence, 250 g/ha, 20 DAA, visual score (100%=total damage; 0%=no damage), read-out: AVEFA PRE herbicidal activity (percentage phytotoxicity)); 70% in assay [3] (post-emergence, 360 h, post-emergence, 250 g/ha, 15 DAA, visual score (100%=total damage; 0%=no damage), read-out: ECHCG POST herbicidal activity (percentage phytotoxicity)); 80% in assay [3] (pre-emergence, 480 h, pre-emergence, 250 g/ha, 20 DAA, visual score (100%=total damage; 0%=no damage), read-out: ECHCG PRE herbicidal activity (percentage phytotoxicity)). For the same compound, the pest or weed control at 250 g/ha was found to be 80% in assay [4] (post-emergence, 360 h, post-emergence, 250 g/ha, 15 DAA, visual score (100%=total damage; 0%=no damage), read-out: LOLPE POST herbicidal activity (percentage phytotoxicity)) and 70% in assay [4] (pre-emergence, 480 h, pre-emergence, 250 g/ha, 20 DAA, visual score (100%=total damage; 0%=no damage), read-out: LOLPE PRE herbicidal activity (percentage phytotoxicity)).
Take `C=C(F)CNC(=O)CC1CC(=O)C(c2c(C)cc(C)cc2C)C1=O` (stereo not shown) [Compound B92]: the pest or weed control at 250 g/ha is 90% in assay [1] (setting [21]); 90% in assay [1] (setting [22]); 80% in assay [2] (setting [23]); 30% in assay [2] (setting [24]); 80% in assay [3] (setting [25]); 90% in assay [3] (setting [26]). Besides, the pest or weed control at 250 g/ha in assay [4] (setting [27]) was found to be 90%; in assay [4] (setting [28]) it was 100%.
